According to patent US12109253B2, “Use of IGFBP7 for treating malaria” (AGENCY FOR SCIENCE, TECHNOLOGY AND RESEARCH, priority 2019, dated 2024):

Tests used:
[1] = test system: cytoadhesive properties of infected erythrocytes; settings: adjunct treatment candidate, phase II clinical trial; cited from earlier work
P. falciparum = assay: Rosetting assay (percentage of IRBC that form rosettes), P. falciparum; type: cell-based, Plasmodium falciparum; settings: for effect on rosetting rates of TSP-1 and VWF without IGFBP7: Albumax-supplemented medium, TSP-1 and VWF present together
Description: Rosetting assay was conducted when 70% of the parasite population reached late stages (late trophozoites and schizonts) unless stated otherwise. The parasite culture suspension was stained subvitally with Giemsa (5% stain working concentration) for 20 minutes. Subsequently, 7.6 μl stained suspension was pipetted onto a clean glass slide, immediately covered with a 22×32 mm glass cover slip. The wet mount was examined with light microscope using 1000× magnification. Rosetting rate (percentage of rosetting IRBCs) was defined as the percentage of IRBC (over 200 recruited IRBC) that form rosettes. Experiments were conducted in blinded manner.
Following data review, coupled with critical information (i.e. the protein's subcellular location and cellular functions) from UNIPROT, candidates were shortlisted for further validation. The parasite culture suspensions were incubated with CSMT and antibodies against the shortlisted proteins (see Table 6, items 35, 37, 39-41) and tested in rosetting assay at a final concentration of 25 μg/ml.
The parasite culture suspension was divided into three groups, one served as control, the second group was added with recombinant human IGFBP7 (final concentration 100 ng/ml), and the third group was mixed with CSMT (CSMT:parasite culture=1:3). After one hour of incubation under in vitro cultivation conditions, rosetting assay was conducted. Separately, a portion of the IGFBP7 suspension was heat-denatured at 95° C. for one hour, prior to use in rosetting assay.
Parasite cultures were incubated with IGFBP7 (working concentrations 0-25,000 ng/ml) prior to rosetting assay. Time course experiments were performed with laboratory-adapted P. falciparum lines (3D7, MKK183, FVT402, FVT201, WPP3065) incubated with IGFBP7 (100 ng/ml). Rosetting assay was conducted after five minutes, using 7 μl of the suspension. The remaining suspension was kept back into the incubator. Rosetting assay was repeated at five minute-intervals until one hour-post-IGFBP7 exposure. Reversibility of IGFBP7-mediated rosette-stimulation was also tested. Parasite lines (3D7, MKK183, FVT402, FVT201, WPP3065) were incubated with IGFBP7 (100 ng/ml) and rosetting assay was conducted with 7 μl of the suspension. The remaining suspension was centrifuged at 1500 g for five minutes. Supernatant was removed, and the pellet was washed thrice with culture medium, followed by re-suspension with culture medium. Five minutes later, 7 μl of the suspension was taken for rosetting assay, subsequently repeated at five minute-intervals up to one-hour post-IGFBP7 removal.
Magnetic activated cell sorter (MACS)-sorted late stage-IRBC (purity 95%) were trypsinized at different working concentrations. The first group was mixed with enzyme trypsin (final trypsin concentration of 10 μg/ml), and the second was mixed with enzyme trypsin (final trypsin concentration of 1 mg/ml). The third served as untreated control. The cells were incubated at 37° C. for 30 minutes. After that, the cells were washed with serum-enriched medium for three times. Each group was incubated with or without IGFBP7 (100 ng/ml) prior to rosetting assay. P. falciparum line CS2 deficient of SBP1 [(SBP1-KO-CS2), which lacks P. falciparum erythrocyte membrane protein 1 (PFEMP1) on its IRBC surface] and its wild type (CS2-WT) counterpart were cultured as described. Their rosetting rates post-incubation with IGFBP7 at different concentrations were determined. P. falciparum clones NF54 VAR2CSA_WT and NF54_T934D (cannot express PfEMP1 variant VAR2CSA on IRBC surface^32) were cultivated. Experiments were conducted when parasite population reached late stages. For each parasite line, two conditions were applied; one was incubated with IGFBP7 (100 ng/ml) whereas the other one acted as IGFBP7-free control. Rosetting assay was conducted afterwards. Five replicates were conducted for each experiment setting. […]

[2] = Albumax-supplemented medium with IGFBP7 100 ng/ml and TSP-1 10 ng/ml

Row | Substance | effect on pathology of patients [1] | effect on rosetting rates of TSP-1 and VWF without IGFBP7 (P. falciparum) | TSP-1 concentration enough to optimally facilitate IGFBP7-mediated rosette-stimulation (P. falciparum; serum-free (Albumax-supplemented medium), IGFBP7 100 ng/ml, with VWF) [ng/mL] | VWF concentration at which optimal increment attained (P. falciparum; [2]) [IU/ml] | VWF concentration sufficient to significantly increase rosetting rates (P. falciparum; [2]) [IU/ml] | effect of VWF by itself on rosetting (P. falciparum; VWF 1 IU/ml, no IGFBP7, 20% and 2% serum medium)
1 | Curdlan sulfate | reduce the severe pathology development | – | – | – | – | –
2 | TSP-1: rhTSP-1 (thrombospondin-1), serum co-factor of IGFBP7-mediated rosetting | – | could not increase the rosetting rates | 10 | – | – | –
3 | VWF: Recombinant human VWF (rhVWF), serum co-factor of IGFBP7-mediated rosetting | – | could not increase the rosetting rates | – | 0.5 | 0.125 | did not stimulate rosetting
